Measurements as given in publication PMC7997369, “Assessment of the Multifunctional Behavior of Lupin Peptide P7 and Its Metabolite Using an Integrated Strategy” (Journal of Agricultural and Food Chemistry, 2020).
Values joined by “and” are separate entries in the source; they are usually repeats but may differ in a detail not shown here. Equal values may be shown once. No end group written: not given here.

How the values were obtained:
[1] = system: differentiated Caco-2 cell monolayers; assay: Transepithelial transport and metabolism across differentiated Caco-2 cell monolayers; type: in vitro ADME, human; details: for detected at the AP side, P7 tested within a mixture: AP solutions of differentiated Caco-2 collected after 120 min; for amount in the BL compartment after 60 min, peptide alone / amount in the BL compartment after 60 min, P7 in the mixture / absorbed amount after 2 h, P7 in the mixture: HPLC–Chip–MS/MS; for rate of transport, peptide alone: AP pH 6.0 (MES), BL pH 7.4
Description: For differentiation, Caco-2 cells were seeded on polycarbonate filters with a 12 mm diameter and 0.4 μm pore diameter (Transwell, Corning, Inc., Lowell, MA, U.S.A.) at a 3.5 × 10^5 cells/cm^2 density in complete medium supplemented with 10% FBS in both AP and BL compartments for 2 days to allow for the formation of a confluent cell monolayer. Starting from day 3 after seeding, cells were transferred to FBS-free medium in both compartments, supplemented with ITS [final concentration of 10 mg/L insulin (I), 5.5 mg/L transferrin (T), and 6.7 μg/L sodium selenite (S), GIBCO–Invitrogen, San Giuliano Milanese, Italy] only in the BL compartment, and allowed to differentiate for 18–21 days with regular medium changes 3 times weekly.[12]
The transepithelial electrical resistance (TEER) of differentiated Caco-2 cells was measured at 37 °C using the voltmeter apparatus Millicell (Millipore Co., Billerica, MA, U.S.A.), immediately before and at the end of the transport experiments. In addition, at the end of transport experiments, cells were incubated from the AP side with 1 mM phenol red in phosphate-buffered saline (PBS) containing Ca^2+ (0.9 mM) and Mg^2+ (0.5 mM) for 1 h at 37 °C, to monitor the paracellular permeability of the cell monolayer. The BL solutions were then collected, and NaOH (70 μL, 0.1 N) was added before reading the absorbance at 560 nm by a microplate reader Synergy H1 from Biotek (Winooski, VT, U.S.A.). Phenol red passage was quantified using a standard phenol red curve. Only filters showing TEER values and phenol red passages similar to untreated control cells were considered for peptide transport analysis.
Prior to experiments, the cell monolayer integrity and differentiation were checked by TEER measurement as described in detail above. Cells were then washed twice, and peptide transportation by intestinal cells was assayed. Transport experiments were performed in transport buffer solution (137 mM NaCl, 5.36 mM KCl, 1.26 mM CaCl2, 1.1 mM MgCl2, and 5.5 mM glucose) following conditions previously described.[13] To reproduce the pH conditions existing in vivo in the small intestinal mucosa, AP solutions were maintained at pH 6.0 (buffered with 10 mM morpholinoethanesulfonic acid) and BL solutions were maintained at pH 7.4 (buffered with 10 mM N-2-hydroxyethylpiperazine-N-4-[…]). Prior to transport experiments, cells were washed twice with 500 μL of PBS containing Ca^2+ and Mg^2+. Peptide transportation by mature Caco-2 cells was assayed by loading the AP compartment with P7 and/or LTFPG (500 μM) in the AP transport solution (500 μL) and the BL compartment with the BL transport solution (700 μL). The plates were incubated at 37 °C, and the BL solutions were collected at different time points (i.e., 15, 30, 60, 90, and 120 min) and replaced with fresh solutions prewarmed at 37 °C. All BL solutions together with the AP solutions collected at the end of the transport experiment were stored at −80 °C prior to analysis. Three independent transport experiments were performed, each in duplicate.
Quantitative analysis of P7 in the AP and BL samples were carried out by ion trap mass spectrometry (MS) in multiple reaction monitoring (MRM) mode, monitoring two of the most intense diagnostic transitions, after optimization of the acquisition parameters, such as retention time, MS profile, and tandem mass spectrometry (MS/MS) fragmentation spectrum.[14],[15] All further details regarding liquid chromatography–tandem mass spectrometry (LC–MS/MS) operating conditions and method validations are described in the Supporting Information.
The metabolic degradation products deriving from the hydrolytic activity of brush border membrane peptidases were investigated by an untargeted approach (for further details, see the Supporting Information). […]

[2] = target: DPP-IV (Homo sapiens, UniProt P27487); assay: Stability of P7 in the presence of DPP-IV; type: in vitro ADME; details: P7 (500 μM) with purified recombinant DPP-IV, Tris–HCl pH 8.0, 37 °C, 5, 30 and 120 min; LC–MS MRM
DPP-IV, sequence (P27487 whole entry): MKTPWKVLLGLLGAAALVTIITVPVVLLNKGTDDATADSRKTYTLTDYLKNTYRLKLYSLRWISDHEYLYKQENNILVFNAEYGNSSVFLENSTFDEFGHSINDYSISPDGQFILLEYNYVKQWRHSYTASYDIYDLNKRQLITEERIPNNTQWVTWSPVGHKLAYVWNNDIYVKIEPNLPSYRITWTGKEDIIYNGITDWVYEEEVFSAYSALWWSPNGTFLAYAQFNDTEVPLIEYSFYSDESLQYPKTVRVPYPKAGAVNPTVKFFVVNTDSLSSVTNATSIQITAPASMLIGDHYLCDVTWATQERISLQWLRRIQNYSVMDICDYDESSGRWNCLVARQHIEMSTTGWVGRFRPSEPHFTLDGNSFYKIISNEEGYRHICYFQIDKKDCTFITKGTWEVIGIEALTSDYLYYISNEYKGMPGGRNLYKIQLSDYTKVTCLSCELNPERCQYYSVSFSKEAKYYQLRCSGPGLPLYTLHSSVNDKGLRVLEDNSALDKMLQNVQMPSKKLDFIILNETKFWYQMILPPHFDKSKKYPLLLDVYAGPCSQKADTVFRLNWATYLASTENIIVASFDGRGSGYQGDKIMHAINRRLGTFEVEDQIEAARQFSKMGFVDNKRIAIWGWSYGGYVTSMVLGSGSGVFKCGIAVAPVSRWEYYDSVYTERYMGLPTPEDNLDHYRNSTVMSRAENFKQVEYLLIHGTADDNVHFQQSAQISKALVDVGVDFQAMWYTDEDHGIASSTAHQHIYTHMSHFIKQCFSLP
Description: The experiments were carried out in microcentrifuge tubes. Each reaction (100 μL) was prepared by adding the reagents in the following order: 1× DPP-IV assay buffer [20 mM Tris–HCl at pH 8.0 containing 100 mM NaCl and 1 mM ethylenediaminetetraacetic acid (EDTA)] (80 μL), P7 solution (10 μL, 500 μM), and finally DPP-IV (10 μL). Subsequently, the samples were mixed and kept at 37 °C in a thermoblock for 5, 30, and 120 min. At the end of the reactions, DPP-IV was inactivated by adding 200 μL of precooled acetonitrile (ACN) to each tube; then the samples were centrifuged for 10 min at 13300g at 4 °C; and the supernatant was collected. P7 and LTFPG were loaded onto the enrichment column (Zorbax 300SB-C18, 5 μm pore size) at a flow rate of 4 μL/min using isocratic 100% C solvent phase (99% water, 1% ACN, and 0.1% formic acid). After the cleanup, P7 and LTFPG were separated on a 150 mm × 75 μm analytical column (Zorbax300SB-C18, 5 μm pore size) at the constant flow rate of 300 nL/min. The LC solvent A was 95% water, 5% ACN, and 0.1% formic acid; solvent B was 5% water, 95% ACN, and 0.1% formic acid. The nanopump gradient program was as follows: 5% solvent B (0 min), 70% solvent B (0–8 min), and back to 5% solvent B in 2 min. Post-time was 10 min. The drying gas temperature was 300 °C, and the flow rate was 3 L/min (nitrogen). Data acquisition occurred in positive ionization mode. […]

[3] = untargeted HPLC–Chip–MS/MS, × = detected
[4] = differentiated Caco-2, AP to BL, peptide alone, 500 μM in AP, 37 °C, AP pH 6.0, BL pH 7.4
[5] = differentiated Caco-2, AP to BL, peptide alone, 500 μM in AP, 37 °C, AP pH 6.0, BL pH 7.4, mean ± sd
[6] = differentiated Caco-2 on Transwell, AP to BL, peptide alone, 500 μM in AP, 37 °C, BL sampled 15–120 min, HPLC–Chip–MS/MS MRM, mean ± sd, three independent experiments
[7] = differentiated Caco-2, AP to BL, mixture with P3 and P5, each 500 μM in AP, 37 °C
[8] = differentiated Caco-2, AP to BL, mixture with P3 and P5, each 500 μM in AP, 37 °C, mean ± sd

detected at the AP side, P7 tested within a mixture [1, 3] | amount in the BL compartment after 60 min, peptide alone [1, 4] [nmol] | amount in the BL compartment after 60 min, peptide alone [1, 5] [µg] | lag period for transport, peptide alone ([1]; differentiated Caco-2, AP to BL, peptide alone, 500 μM in AP, AP pH 6.0, BL pH 7.4, 37 °C) | rate of transport, peptide alone [1, 6] [ng mL^–1 min^–1] | detected at the AP side, P7 tested as individual species (alone) ([1]; AP solutions of differentiated Caco-2 at the end of the transport experiment, untargeted HPLC–Chip–MS/MS, × = detected) | fold higher amount in BL when tested alone than in the mixture ([1]; after 60 min of incubation) | amount in the BL compartment after 60 min, P7 in the mixture [1, 7] [nmol] | amount in the BL compartment after 60 min, P7 in the mixture [1, 8] [µg] | absorbed amount after 2 h, P7 in the mixture [1, 7] [nmol] | absorbed amount after 2 h, P7 in the mixture [1, 8] [µg] | lag period for transport, P7 in a mixture ([1]; differentiated Caco-2, AP to BL, mixture with P3 and P5, each 500 μM in AP, AP pH 6.0, BL pH 7.4, 37 °C) | rate of transport, P7 in a mixture ([1]; differentiated Caco-2 on Transwell, AP to BL, mixture with P3 and P5, each 500 μM in AP, AP pH 6.0, BL pH 7.4, 37 °C, BL sampled 15–120 min, HPLC–Chip–MS/MS MRM, mean ± sd, three independent experiments) [ng mL^–1 min^–1] | Substance | transport in the presence of wortmannin ([1]; mature Caco-2 cells, wortmannin, inhibitor of the transcellular passage) | hydrolysis of P7 by DPP-IV (formation of LTFPG) [2]
× | 0.412 | 0.22 ± 0.003 | without a lag period | 3.7 ± 0.8 |  |  |  |  |  |  |  |  | LTFPG [LTFPG] | transported also in the presence of wortmannin | clearly detectable after 2 h of incubation
× | 0.278 | 0.26 ± 0.02 |  | 4.2 ± 0.6 | × | about 4 fold | 0.064 | 0.06 ± 0.003 | 0.235 | 0.22 ± 0.5 | 27.7 min and 27 min | 1.98 ± 0.21 | LTFPGSAED [P7] |  | subjected to DPP-IV hydrolysis
